system: CD3/IL2 stimulated PBMC cells; experiment: IFNγ release from CD3/IL2 stimulated PBMC cells; format: cell-based; conditions: Homo sapiens, CD3/IL2 stimulation, 48 h, ELISA
Experimental: PBMCs from healthy subjects are separated from whole blood using a density gradient (Lymphoprep, Axis-Shield Healthcare). Cells are added to a 96 well plate, and compound at the desired concentration added 2 hours prior to stimulation with a mixture of monoclonal antibody to CD3 (1 μg/ml, eBioscience) and human recombinant IL2 (10 ng/ml, Peprotech). After 48 hours incubation under normal tissue culture conditions, supernatants are collected and IFNγ release determined by Sandwich ELISA (Duo-set, R&D System). The IC50 is determined from the dose response curve.

| SMILES | IC50 [µM] |
| --- | --- |
| CCc1cc(O)c(F)cc1-c1ccc2c(-c3nc4c([nH]3)CCN(C(=O)N3CCc5ccccc53)C4)n[nH]c2c1 [Example 2(b), (2-(6-(2-ethyl-5-fluoro-4-hydroxyphenyl)-1H-indazol-3-yl)-1,4,6,7-tetrahydro-5H-imidazo[4,5-c]pyridin-5-yl)(indolin-1-yl)methanone] | 0.0313 |
| CCc1cc(O)c(F)cc1-c1ccc2c(-c3nc4c([nH]3)CCN(C(=O)N3CCCC3)C4)n[nH]c2c1 [Example 2(d), (2-(6-(2-ethyl-5-fluoro-4-hydroxyphenyl)-1H-indazol-3-yl)-1,4,6,7-tetrahydro-5H-imidazo[4,5-c]pyridin-5-yl)(pyrrolidin-1-yl)methanone] | 0.0051 |
| CCc1cc(O)c(F)cc1-c1ccc2c(-c3nc4c([nH]3)CCN(S(=O)(=O)N3CCC(C(=O)NC)CC3)C4)n[nH]c2c1 [Example 6(b), 1-((2-(6-(2-ethyl-5-fluoro-4-hydroxyphenyl)-1H-indazol-3-yl)-6,7-dihydro-1H-imidazo[4,5-c]pyridin-5(4H)-yl)sulfonyl)-N-methylpiperidine-4-carboxamide] | 0.101 |
| CCc1cc(O)c(F)cc1-c1ccc2c(-c3nc4c([nH]3)CN(C(=O)Nc3cccc5nsnc35)CC4)n[nH]c2c1 [Example 4(e), N-(benzo[c][1,2,5]thiadiazol-4-yl)-2-(6-(2-ethyl-5-fluoro-4-hydroxyphenyl)-1H-indazol-3-yl)-6,7-dihydro-1H-imidazo[4,5-c]pyridine-5(4H)-carboxamide] | 0.0309 |
| CCc1cc(O)c(F)cc1-c1ccc2c(-c3nc4c([nH]3)CCN(C(=O)Nc3ccccc3)C4)n[nH]c2c1 [Example 4(f), 2-(6-(2-ethyl-5-fluoro-4-hydroxyphenyl)-1H-indazol-3-yl)-N-phenyl-6,7-dihydro-1H-imidazo[4,5-c]pyridine-5(4H)-carboxamide] | 0.0196 |
| CCc1cc(O)c(F)cc1-c1ccc2c(-c3nc4c([nH]3)CCN(C(=O)Nc3ccc(S(C)(=O)=O)cc3)C4)n[nH]c2c1 [Example 4(b), 2-(6-(2-ethyl-5-fluoro-4-hydroxyphenyl)-1H-indazol-3-yl)-N-(4-(methylsulfonyl)phenyl)-6,7-dihydro-1H-imidazo[4,5-c]pyridine-5(4H)-carboxamide] | 0.0548 |
| CCc1cc(O)c(F)cc1-c1ccc2c(-c3nc4c([nH]3)CCN(C(=O)Nc3c(C)noc3C)C4)n[nH]c2c1 [Example 4(c), N-(3,5-dimethylisoxazol-4-yl)-2-(6-(2-ethyl-5-fluoro-4-hydroxyphenyl)-1H-indazol-3-yl)-6,7-dihydro-1H-imidazo[4,5-c]pyridine-5(4H)-carboxamide] | 0.0442 |

From patent publication US10882859B2, “Kinase inhibitors” (Topivert Pharma Limited, priority 2015, dated 2021)
